From patent US7132252B2, “Methods for detecting the interaction of compounds with cytochrome P450 using optical molecular sensors” (Invitrogen Corporation, priority 1998, dated 2006)

Assays:
CYP2D6 = CYP2D6 (Homo sapiens, UniProt P10635); experiment: Apparent inhibition constants of drugs for CYP 2D6 with MOBFC as sensor
Experimental: CYP 2D6 was incubated with 10 μM concentrations of various known inhibitors and drug substrates and residual CYP 2D6 activity assayed with the fluorogenic substrate MOBFC. The assay was performed in a 96-well plate at room temp and at a volume of 100 μl/well. 4×enzyme buffer was prepared and 25 μl was added to each well on the plate, for final assay concentrations of 3.3 mM glucose-6-phosphate, 0.4 units/ml glucose-6-phosphate dehydrogenase and 10 mM MgCl2 in 100 mM K+ phosphate, pH 8.0. […] Six consecutive 1:3 dilutions were made and 50 μl of each was added to appropriate wells on the assay plate. The CYP2D6 was diluted to a solution of 2 pmol/10 μl in 100 mM K+ phosphate and 10 μl was added to each well. 20 μl of buffer was added to each well containing standard. The drug inhibitors were allowed to pre-incubated with the CYP 2D6 enzyme for 1 hr prior to the addition of the MOBFC substrate. […] Hydroxy-trifluoro-methylcoumarin was diluted to 100 μM in K+ phosphate buffer, and seven consecutive 1:2 dilutions were made. […] After addition of 10 μl of 13 mM NADP+ solutions to all wells the assay plate was placed into the fluorescence microtiter plate reader and fluorescence measured at 3 minute intervals for 60 minutes.

CYP3A4 [1] = molecular target: T1, CYP3A4 (Homo sapiens, UniProt P08684)
T1 sequence (P08684 whole entry): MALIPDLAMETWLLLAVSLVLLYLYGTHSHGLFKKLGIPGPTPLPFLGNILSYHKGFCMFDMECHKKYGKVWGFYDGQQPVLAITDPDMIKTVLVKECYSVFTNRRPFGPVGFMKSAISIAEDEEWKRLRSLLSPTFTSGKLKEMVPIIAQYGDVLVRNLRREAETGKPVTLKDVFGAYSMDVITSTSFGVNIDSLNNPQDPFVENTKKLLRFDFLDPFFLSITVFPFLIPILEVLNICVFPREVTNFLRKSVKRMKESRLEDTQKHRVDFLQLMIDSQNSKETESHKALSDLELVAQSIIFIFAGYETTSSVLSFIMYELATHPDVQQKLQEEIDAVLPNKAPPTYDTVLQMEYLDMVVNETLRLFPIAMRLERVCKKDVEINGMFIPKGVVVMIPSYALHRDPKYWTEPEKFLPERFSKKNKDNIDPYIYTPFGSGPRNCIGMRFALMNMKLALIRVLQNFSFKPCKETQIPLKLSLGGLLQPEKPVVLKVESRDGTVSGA

CYP3A4 [2] = molecular target: T1, CYP3A4; experiment: in vitro; conditions: pH 8, % inhibition; for inhibition at 20 min, 10 µM: Condition A; for inhibition at 40 min, 10 µM: Condition B
CYP3A4 [3] = molecular target: T1, CYP3A4; experiment: Kinetic properties of fluorogenic substrates with CYP 3A4; assay type: biochemical
From the text: For further understanding these terms in the context of this invention, attention is directed to FIG. 4 and the analysis of FIG. 4.
(respectively, MFC and MR).

CYP 2B6 = molecular target: T2, CYP 2B6 (Homo sapiens, UniProt P20813); experiment: Kinetic properties of fluorogenic substrates with CYP 2B6; assay type: biochemical
T2 sequence (P20813 1-491): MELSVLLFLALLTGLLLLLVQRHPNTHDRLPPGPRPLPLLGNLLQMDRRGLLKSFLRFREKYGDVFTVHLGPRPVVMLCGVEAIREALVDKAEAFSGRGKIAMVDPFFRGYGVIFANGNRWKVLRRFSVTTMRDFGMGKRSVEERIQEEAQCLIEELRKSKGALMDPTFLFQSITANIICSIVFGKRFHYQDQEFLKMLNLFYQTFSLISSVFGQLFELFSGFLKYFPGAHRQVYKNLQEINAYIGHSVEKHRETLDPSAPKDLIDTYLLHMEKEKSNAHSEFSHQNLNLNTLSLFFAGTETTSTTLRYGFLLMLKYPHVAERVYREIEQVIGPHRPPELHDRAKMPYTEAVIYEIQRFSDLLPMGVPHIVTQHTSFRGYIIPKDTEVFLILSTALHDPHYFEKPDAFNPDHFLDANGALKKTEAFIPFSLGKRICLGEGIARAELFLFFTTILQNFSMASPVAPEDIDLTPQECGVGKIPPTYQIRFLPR

CYP3A4 [4] = molecular target: T1, CYP3A4; experiment: Kinetics of BOMR and BR toward CYP 3A4 (FIG. 4); assay type: biochemical; conditions: from FIG. 4 data
From the text: Whichever of the four abstractable hydrogen atoms (designated H^1 and H^2 in this representation of BOMR) is removed in the initial reaction step, with reference to Reaction Scheme 1 of FIG. 1, the hydroxylation product will spontaneously decompose to the free resorufin dye. In addition, the benzyloxy group, attached to the carbon carrying the two hydrogens designated H^2, contributes an inductive electronic effect on that carbon, which can stabilize the radical formed during abstraction of one of the H^2 hydrogens by a cytochrome P450.
Optimization of assay conditions was, and is preferably, accomplished through statistically validated Design of Experiments methodologies, using the commercial software package “Design-Expert®” produced by Stat-Ease® Inc. The data shown in FIGS. 4 and 5 were obtained with initial optimization.

CYP3A4 [5] = molecular target: T1, CYP3A4; experiment: Rate of hydroxylation of BOM-09B by CYP 3A4; assay type: biochemical
Experimental: The racemic compound mixture (designated BOM-09B) was tested for activity with cytochrome P450 isozymes. […] The CYP 3A4 assay was performed in a 96-well plate at 37° C. in a volume of 100 μL/well. BOM-09B was diluted from a stock solution of 1 mM in acetonitrile to a 4×concentration of 80 μM in 100 mM K+ phosphate buffer of which 25 μl was added to the appropriate wells. […] The cytochrome P450 isozyme CYP3A4 was diluted to give a 2 pmol enzyme per well. Enzymic conversion of the substrate to products was allowed to proceed for 1 hour with fluorescence reads taken every 4 minutes on a fluorescence microtiter plate reader. The solution was illuminated with an 395/25 nm excitation filter and fluorescence emission was detected through a 460/40 nm the emission filter.

CYP3A4 [6] = molecular target: T1, CYP3A4; experiment: Kinetic properties of fluorescein-based fluorogenic substrates with CYP 3A4; assay type: biochemical
Experimental: (§1) Dibenzylfluorescein (DBF) was purchased form Gentest, Woburn, Mass. […] DBF, BOMF and DBOMF were diluted from a stock solution of 2 mM in acetonitrile to a 4×concentration of 80 μM in 100 mM K+ phosphate buffer. Seven 1:2 dilutions were made of each substrate of which 25 μl was added to the appropriate wells. […] The cytochrome P450 isozyme CYP3A4 was diluted to give a 0.5 pmol enzyme per well and added in a volume of 10 μl/well in K+ phosphate, pH 8.0. Enzymatic conversion of the substrate to products was allowed to proceed for 1 hour with fluorescence reads taken every four minutes on a fluorescence microtiter plate reader. The solution was illuminated using an 485/20 nm excitation filter and fluorescence emission was detected through a 530/25 nm the emission filter.

CYP2C9 = CYP2C9 (Homo sapiens, UniProt P11712); experiment: Kinetic properties of substrate BOMF with CYP 2C9 (Tris-HCl buffer); assay type: biochemical
[7] = substrate: CCCCCCCCOCOc1ccc2nc3ccc(=O)cc-3oc2c1; experiment: Kinetic properties of fluorogenic substrates with CYP 2C9; assay type: biochemical, human; conditions: other: — = too low to quantify
[8] = substrate: COCOc1ccc2cc(C#N)c(=O)oc2c1; experiment: as above; assay type: biochemical, human; conditions: other: — = too low to quantify
[9] = substrate: COc1ccc(COc2ccc3c(C(F)(F)F)cc(=O)oc3c2)cc1; experiment: as above; assay type: biochemical, human; conditions: other: — = too low to quantify
[10] = substrate: COc1ccc(COc2ccc3nc4ccc(=O)cc-4oc3c2)cc1; experiment: as above; assay type: biochemical, human; conditions: other: — = too low to quantify
[11] = substrate: COc1ccc2cc(C#N)c(=O)oc2c1; experiment: as above; assay type: biochemical, human; conditions: other: — = too low to quantify
[12] = substrate: N#Cc1cc2ccc(OCOCc3ccccc3)cc2oc1=O; experiment: as above; assay type: biochemical, human; conditions: other: — = too low to quantify
[13] = substrate: O=C(O)c1ccccc1-c1c2ccc(=O)cc-2oc2cc(OCOCc3ccccc3)ccc12; experiment: Kinetic properties of substrate BOMF with CYP 2C9 (Tris-HCl buffer); assay type: biochemical, human; conditions: other: 200 mM Tris-HCl buffer, pH 7.5
[14] = substrate: O=C(OCOCc1ccccc1)c1ccccc1-c1c2ccc(=O)cc-2oc2cc(OCOCc3ccccc3)ccc12; experiment: Kinetic properties of fluorescein-based fluorogenic substrates with CYP 2C8; assay type: biochemical, human; conditions: other: 100 mM K+ phosphate buffer, pH 7.5
Experimental: as §1
(§2) In deviation from the protocol described in Example 32, the phosphate-based buffer (100 mM K+ phosphate, pH 8.0) was replaced throughout the procedure by 100 mM K+ phosphate buffer, pH 7.5. […] Specifically, the substrate dibenzylfluorescein (DBF) (purchased form Gentest, Woburn, Mass.) and the sensor of the present invention DBOMF were tested for activity with CYP 2C8.

[15] = substrate: O=C(OCc1ccccc1)c1ccccc1-c1c2ccc(=O)cc-2oc2cc(OCc3ccccc3)ccc12; experiment: as above; assay type: biochemical, human; conditions: other: 100 mM K+ phosphate buffer, pH 7.5
Experimental: as §1, §2

[16] = turnover rate at 1.25 uM substrate, — = too low to quantify
[17] = turnover rate at 10 uM substrate, — = too low to quantify

Chain of CYP2D6 (P10635 whole entry): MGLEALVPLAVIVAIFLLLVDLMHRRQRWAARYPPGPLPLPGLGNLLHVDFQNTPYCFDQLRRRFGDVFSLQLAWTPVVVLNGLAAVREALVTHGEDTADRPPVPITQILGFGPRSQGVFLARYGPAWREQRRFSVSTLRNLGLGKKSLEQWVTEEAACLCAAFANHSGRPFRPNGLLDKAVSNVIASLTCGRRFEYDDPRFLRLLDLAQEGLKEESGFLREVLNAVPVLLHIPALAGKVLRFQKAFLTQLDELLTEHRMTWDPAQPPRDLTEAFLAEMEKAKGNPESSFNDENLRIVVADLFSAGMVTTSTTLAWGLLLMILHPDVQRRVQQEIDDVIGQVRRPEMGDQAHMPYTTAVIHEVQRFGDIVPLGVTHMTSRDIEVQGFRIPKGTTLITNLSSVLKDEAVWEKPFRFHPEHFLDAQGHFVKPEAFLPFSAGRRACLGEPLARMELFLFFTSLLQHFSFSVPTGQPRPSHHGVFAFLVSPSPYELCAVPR

Molecule: COc1cccc2c1C(=O)c1c(O)c3c(c(O)c1C2=O)C[C@@](O)(C(=O)CO)C[C@@H]3O[C@H]1C[C@H](N)[C@H](O)[C@H](C)O1 [Doxorubicin]
- Ki (CYP2D6): 8 µM
- metabolism-dependent inhibitory activity against the CYP3A4 isozyme (CYP3A4 [1]): at least partial metabolism-dependent inhibitory activity
- inhibition at 20 min, 10 µM (CYP3A4 [2]; substrate BOMCC): 81%
- inhibition at 40 min, 10 µM (CYP3A4 [2]; substrate BOMCC): 79%
- inhibition at 20 min, 10 µM (CYP3A4 [2]; substrate BOMR): 29%
- inhibition at 40 min, 10 µM (CYP3A4 [2]; substrate BOMR): 72%
- inhibition at 20 min, 10 µM (CYP3A4 [2]; substrate DBOMF): 3%
- inhibition at 40 min, 10 µM (CYP3A4 [2]; substrate DBOMF): 33%

Molecule: CN(C)CCC(c1ccc(Cl)cc1)c1ccccn1 (stereo not drawn) [Chlorpheniramine]
- Ki (CYP2D6): 2.5 µM

Molecule: O=c1ccc2nc3ccc(OCc4ccccc4)cc3oc-2c1 [BR, Benzylresorufin, reference compound]
- type of kinetics (CYP3A4 [3]): Michaelis-Menten
- v (1.25 uM) (CYP3A4 [3]; [16]): 0.02 min⁻¹
- v (10 uM) (CYP3A4 [3]; [17]): 0.08 min⁻¹
- type of kinetics (CYP 2B6): notMichaelis-Menten
- v (1.25 uM) (CYP 2B6; [16]): 0.42 min⁻¹
- v (10 uM) (CYP 2B6; [17]): 0.42 min⁻¹
- turnover rate (kcat) (CYP3A4 [4]): 0.00167 s⁻¹
- Km (CYP3A4 [4]; human, CYP 3A4 enzyme): 5.3 µM

Molecule: CC[C@H]1[C@@H]2C[C@H]3[C@@H]4N(C)c5ccccc5[C@]45C[C@@H]([C@@H]2[C@H]5O)N3[C@@H]1O [Amjaline]
- Ki (CYP2D6): > 30 µM

Molecule: NC1CCCCC1NC(=O)c1cc2ccc(OCOCc3ccccc3)cc2oc1=O (racemic) [BOM-09B]
- conversion rate (CYP3A4 [5]; 20 μM substrate, 37° C., 2 pmol enzyme per well): 0.75 pmol substrate/pmol enzyme·min
- rate of conversion compared with BOMCC (CYP3A4 [5]; identical conditions): half that of BOMCC

Molecule: O=C(O)c1ccccc1-c1c2ccc(=O)cc-2oc2cc(OCOCc3ccccc3)ccc12 [BOMF, Benzyloxymethylfluorescein]
- type of kinetics (CYP3A4 [6]): MichaelisMenten
- v (1.25 uM) (CYP3A4 [6]; turnover rate at 1.25 uM substrate, 100 mM K+ phosphate, pH 8.0): 0.53 min⁻¹
- v (10 uM) (CYP3A4 [6]; turnover rate at 10 uM substrate, 100 mM K+ phosphate, pH 8.0): 3.40 min⁻¹
- type of kinetics (CYP2C9): MichaelisMenten
- v (1.25 uM) (CYP2C9; turnover rate at 1.25 uM substrate, 200 mM Tris-HCl buffer, pH 7.5): 1.28 min⁻¹
- v (10 uM) (CYP2C9; turnover rate at 10 uM substrate, 200 mM Tris-HCl buffer, pH 7.5): 2.84 min⁻¹

B1: CYP 2C9 (Homo sapiens) (protein)
chain: MDSLVVLVLCLSCLLLLSLWRQSSGRGKLPPGPTPLPVIGNILQIGIKDISKSLTNLSKVYGPVFTLYFGLKPIVVLHGYEAVKEALIDLGEEFSGRGIFPLAERANRGFGIVFSNGKKWKEIRRFSLMTLRNFGMGKRSIEDRVQEEARCLVEELRKTKASPCDPTFILGCAPCNVICSIIFHKRFDYKDQQFLNLMEKLNENIKILSSPWIQICNNFSPIIDYFPGTHNKLLKNVAFMKSYILEKVKEHQESMDMNNPQDFIDCFLMKMEKEKHNQPSEFTIESLENTAVDLFGAGTETTSTTLRYALLLLLKHPEVTAKVQEEIERVIGRNRSPCMQDRSHMPYTDAVVHEVQRYIDLLPTSLPHAVTCDIKFRNYLIPKGTTILISLTSVLHDNKEFPNPEMFDPHHFLDEGGNFKKSKYFMPFSAGKRICVGEALAGMELFLFLTSILQNFNLKSLVDPKNLDTTPVVNGFASVPPFYQLCFIPV
- Km [7]: 2.6 µM
- kcat [7]: 0.0067 s⁻¹
- kcat/Km [7]: 2564 M⁻¹ s⁻¹
- Km [8]: 20 µM
- kcat/Km [8]: 167 M⁻¹ s⁻¹
- Km [9]: 7.7 µM
- kcat [9]: 0.00483 s⁻¹
- kcat/Km [9]: 628 M⁻¹ s⁻¹
- Km [10]: 0.4 µM
- kcat/Km [10]: 952 M⁻¹ s⁻¹
- Km [11]: 70.9 µM
- kcat [11]: 0.00667 s⁻¹
- kcat/Km [11]: 85 M⁻¹ s⁻¹
- Km [12]: 43.0 µM
- kcat [12]: 0.035 s⁻¹
- kcat/Km [12]: 814 M⁻¹ s⁻¹
- Km [13]: 4.5 µM
- kcat [13]: 0.075 s⁻¹
- kcat/Km [13]: 16666 M⁻¹ s⁻¹

B2: CYP 2C8 (Homo sapiens) (protein)
chain: MEPFVVLVLCLSFMLLFSLWRQSCRRRKLPPGPTPLPIIGNMLQIDVKDICKSFTNFSKVYGPVFTVYFGMNPIVVFHGYEAVKEALIDNGEEFSGRGNSPISQRITKGLGIISSNGKRWKEIRRFSLTTLRNFGMGKRSIEDRVQEEAHCLVEELRKTKASPCDPTFILGCAPCNVICSVVFQKRFDYKDQNFLTLMKRFNENFRILNSPWIQVCNNFPLLIDCFPGTHNKVLKNVALTRSYIREKVKEHQASLDVNNPRDFIDCFLIKMEQEKDNQKSEFNIENLVGTVADLFVAGTETTSTTLRYGLLLLLKHPEVTAKVQEEIDHVIGRHRSPCMQDRSHMPYTDAVVHEIQRYSDLVPTGVPHAVTTDTKFRNYLIPKGTTIMALLTSVLHDDKEFPNPNIFDPGHFLDKNGNFKKSDYFMPFSAGKRICAGEGLARMELFLFLTTILQNFNLKSVDDLKNLNTTAVTKGIVSLPPSYQICFIPV
- Km [14]: 3.6 µM
- kcat [14]: 0.035 s⁻¹
- kcat/Km [14]: 9722 M⁻¹ s⁻¹
- Km [15]: 2.0 µM
- kcat [15]: 0.0067 s⁻¹
- kcat/Km [15]: 3333 M⁻¹ s⁻¹
